# pIC50: −log10 of the molar value.
# System: JAK1-dependent STAT6 phosphorylation downstream of IL-13 stimulation in TF-1 human erythroleukemia cells
# Assay: cells
# Settings: TF-1, read-out: IL-13-pSTAT6 IC50
row,pIC50,Structure (SMILES)
1,8.38,"O=C(CCC(F)(F)F)N1CC=C(c2cccn3nc(Nc4ccc(C(=O)N5CCCCC5Cc5ccccn5)cc4)nc23)CC1 (stereo not drawn) [Example 2-265, 4,4,4-trifluoro-1-[4-[2-[4-[2-(2-pyridylmethyl)piperidine-1-carbonyl]anilino]-[1,2,4]triazolo[1,5-a]pyridin-8-yl]-3,6-dihydro-2H-pyridin-1-yl]butan-1-one]"
2,8.01,"CC(C)CN1CCN(C(=O)c2ccc(Nc3nc4c(C5=CCN(C(=O)CCC(F)(F)F)CC5)cccn4n3)cc2)CC1 [Example 2-266, 4,4,4-trifluoro-1-[4-[2-[4-(4-isobutylpiperazine-1-carbonyl)anilino]-[1,2,4]triazolo[1,5-a]pyridin-8-yl]-3,6-dihydro-2H-pyridin-1-yl]butan-1-one]"
3,8.06,"CN1CCC(N(C)C(=O)c2ccc(Nc3nc4c(C5=CCN(C(=O)CCC(F)(F)F)CC5)cccn4n3)cc2)C1 (stereo not drawn) [Example 2-267, N-methyl-N-(1-methylpyrrolidin-3-yl)-4-[[8-[1-(4,4,4-trifluorobutanoyl)-3,6-dihydro-2H-pyridin-4-yl]-[1,2,4]triazolo[1,5-a]pyridin-2-yl]amino]benzamide]"
4,8.29,"CC1CC(C)CN(CCNC(=O)c2ccc(Nc3nc4c(C5=CCN(C(=O)CCC(F)(F)F)CC5)cccn4n3)cc2)C1 (stereo not drawn) [Example 2-269, N-[2-(3,5-dimethyl-1-piperidyl)ethyl]-4-[[8-[1-(4,4,4-trifluorobutanoyl)-3,6-dihydro-2H-pyridin-4-yl]-[1,2,4]triazolo[1,5-a]pyridin-2-yl]amino]benzamide]"
5,7.79,"CN1CCN(CCNC(=O)c2ccc(Nc3nc4c(C5=CCN(C(=O)CCC(F)(F)F)CC5)cccn4n3)cc2)CC1 [Example 2-270, N-[2-(4-methylpiperazin-1-yl)ethyl]-4-[[8-[1-(4,4,4-trifluorobutanoyl)-3,6-dihydro-2H-pyridin-4-yl]-[1,2,4]triazolo[1,5-a]pyridin-2-yl]amino]benzamide]"
6,8.26,"O=C(CCC(F)(F)F)N1CC=C(c2cccn3nc(Nc4ccc(C(=O)N5CCCC5c5ccncc5)cc4)nc23)CC1 (stereo not drawn) [Example 2-273, 4,4,4-trifluoro-1-[4-[2-[4-[2-(4-pyridyl)pyrrolidine-1-carbonyl]anilino]-[1,2,4]triazolo[1,5-a]pyridin-8-yl]-3,6-dihydro-2H-pyridin-1-yl]butan-1-one]"
7,7.35,"CN1CCC(CCNC(=O)c2ccc(Nc3nc4c(C5=CCN(C(=O)CCC(F)(F)F)CC5)cccn4n3)cc2)CC1 [Example 2-274, N-[2-(1-methyl-4-piperidyl)ethyl]-4-[[8-[1-(4,4,4-trifluorobutanoyl)-3,6-dihydro-2H-pyridin-4-yl]-[1,2,4]triazolo[1,5-a]pyridin-2-yl]amino]benzamide]"
8,7.43,"CNC(=O)C1CN(C(=O)c2ccc(Nc3nc4c(C5=CCN(C(=O)CCC(F)(F)F)CC5)cccn4n3)cc2)CCN1C (stereo not drawn) [Example 2-275, N,1-dimethyl-4-[4-[[8-[1-(4,4,4-trifluorobutanoyl)-3,6-dihydro-2H-pyridin-4-yl]-[1,2,4]triazolo[1,5-a]pyridin-2-yl]amino]benzoyl] piperazine-2-carboxamide]"
9,6.89,"CNC(=O)C1CN(C)CCN1C(=O)c1ccc(Nc2nc3c(C4=CCN(C(=O)CCC(F)(F)F)CC4)cccn3n2)cc1 (stereo not drawn) [Example 2-276, N,4-dimethyl-1-[4-[[8-[1-(4,4,4-trifluorobutanoyl)-3,6-dihydro-2H-pyridin-4-yl]-[1,2,4]triazolo[1,5-a]pyridin-2-yl]amino]benzoyl] piperazine-2-carboxamide]"
10,7.70,"O=C(CCC(F)(F)F)N1CC=C(c2cccn3nc(Nc4ccc(C(=O)N5CCC(Cc6cccnc6)CC5)cc4)nc23)CC1 [Example 2-277, 4,4,4-trifluoro-1-[4-[2-[4-[4-(3-pyridylmethyl)piperidine-1-carbonyl]anilino]-[1,2,4]triazolo[1,5-a]pyridin-8-yl]-3,6-dihydro-2H-pyridin-1-yl]butan-1-one]"
11,7.41,"O=C(CCC(F)(F)F)N1CC=C(c2cccn3nc(Nc4ccc(C(=O)N5CCCN(c6ccncc6)CC5)cc4)nc23)CC1 [Example 2-278, 4,4,4-trifluoro-1-[4-[2-[4-[4-(4-pyridyl)-1,4-diazepane-1-carbonyl]anilino]-[1,2,4]triazolo[1,5-a]pyridin-8-yl]-3,6-dihydro-2H-pyridin-1-yl]butan-1-one]"
12,7.41,"O=C(CCC(F)(F)F)N1CC=C(c2cccn3nc(Nc4ccc(C(=O)N(CCO)Cc5cccnc5)cc4)nc23)CC1 [Example 2-279, N-(2-hydroxyethyl)-N-(3-pyridylmethyl)-4-[[8-[1-(4,4,4-trifluorobutanoyl)-3,6-dihydro-2H-pyridin-4-yl]-[1,2,4]triazolo[1,5-a]pyridin-2-yl]amino]benzamide]"
13,8.02,"O=C(CCC(F)(F)F)N1CC=C(c2cccn3nc(Nc4ccc(C(=O)N5CCCCC5c5cccnc5)cc4)nc23)CC1 (stereo not drawn) [Example 2-280, 4,4,4-trifluoro-1-[4-[2-[4-[2-(3-pyridyl)piperidine-1-carbonyl]anilino]-[1,2,4]triazolo[1,5-a]pyridin-8-yl]-3,6-dihydro-2H-pyridin-1-yl]butan-1-one]"
14,7.40,"CN1CCC(N(C)C(=O)c2ccc(Nc3nc4c(C5=CCN(C(=O)C6CCCC6)CC5)cccn4n3)cc2)CC1 [Example 2-281, 4-[[8-[1-(cyclopentanecarbonyl)-3,6-dihydro-2H-pyridin-4-yl]-[1,2,4]triazolo[1,5-a]pyridin-2-yl]amino]-N-methyl-N-(1-methyl-4-piperidyl)benzamide]"
15,7.27,"CN1CCC(N(C)C(=O)c2ccc(Nc3nc4c(C5=CCN(C(=O)OC6COC6)CC5)cccn4n3)cc2)CC1 [Example 2-283, oxetan-3-yl-4-[2-[4-[methyl-(1-methyl-4-piperidyl)carbamoyl]anilino]-[1,2,4]triazolo[1,5-a]pyridin-8-yl]-3,6-dihydro-2H-pyridine-1-carboxylate]"
16,6.79,"CN1CCC(N(C)C(=O)c2ccc(Nc3nc4c(C5=CCN(c6ccccc6)CC5)cccn4n3)cc2)CC1 [Example 2-284, N-methyl-N-(1-methyl-4-piperidyl)-4-[[8-(1-phenyl-3,6-dihydro-2H-pyridin-4-yl)-[1,2,4]triazolo[1,5-a]pyridin-2-yl]amino]benzamide]"
17,5.76,"CN1CCC(N(C)C(=O)c2ccc(Nc3nc4c(C5=CCN(C(=O)N6CC7(COC7)C6)CC5)cccn4n3)cc2)CC1 [Example 2-286, N-methyl-N-(1-methyl-4-piperidyl)-4-[[8-[1-(2-oxa-6-azaspiro[3.3]heptane-6-carbonyl)-3,6-dihydro-2H-pyridin-4-yl]-[1,2,4]triazolo[1,5-a]pyridin-2-yl]amino]benzamide]"
18,6.61,"CN1CCC(N(C)C(=O)c2ccc(Nc3nc4c(C5=CCN(C(=O)CCC#N)CC5)cccn4n3)cc2)CC1 [Example 2-287, 4-[[8-[1-(3-cyanopropanoyl)-3,6-dihydro-2H-pyridin-4-yl]-[1,2,4]triazolo[1,5-a]pyridin-2-yl]amino]-N-methyl-N-(1-methyl-4-piperidyl)benzamide]"
19,7.37,"CCCC(=O)N1CC=C(c2cccn3nc(Nc4ccc(C(=O)N(C)C5CCN(C)CC5)cc4)nc23)CC1 [Example 2-289, 4-[[8-(1-butanoyl-3,6-dihydro-2H-pyridin-4-yl)-[1,2,4]triazolo[1,5-a]pyridin-2-yl]amino]-N-methyl-N-(1-methyl-4-piperidyl)benzamide]"
20,7.42,"CN1CCC(N(C)C(=O)c2ccc(Nc3nc4c(C5=CCN(C(=O)N6CC(C)(C)C6)CC5)cccn4n3)cc2)CC1 [Example 2-290, 4-[[8-[1-(3,3-dimethylazetidine-1-carbonyl)-3,6-dihydro-2H-pyridin-4-yl]-[1,2,4]triazolo[1,5-a]pyridin-2-yl]amino]-N-methyl-N-(1-methyl-4-piperidyl)benzamide]"
21,7.65,"CCOC(=O)N1CC=C(c2cccn3nc(Nc4ccc(C(=O)NCCCN5CCN(C)CC5)cc4)nc23)CC1 [Example 2-291, ethyl 4-[2-[4-[3-(4-methylpiperazin-1-yl)propylcarbamoyl]anilino]-[1,2,4]triazolo[1,5-a]pyridin-8-yl]-3,6-dihydro-2H-pyridine-1-carboxylate]"
22,7.53,"CCOC(=O)N1CC=C(c2cccn3nc(Nc4ccc(C(=O)NCC5CCCN(C)C5)cc4)nc23)CC1 (stereo not drawn) [Example 2-293, ethyl 4-[2-[4-[(1-methyl-3-piperidyl)methylcarbamoyl]anilino]-[1,2,4]triazolo[1,5-a]pyridin-8-yl]-3,6-dihydro-2H-pyridine-1-carboxylate]"
23,6.42,"CCOC(=O)N1CC=C(c2cccn3nc(Nc4ccc(C(=O)NCC5CCNC5)cc4)nc23)CC1 (stereo not drawn) [Example 2-296, ethyl 4-[2-[4-(pyrrolidin-3-ylmethylcarbamoyl)anilino]-[1,2,4]triazolo[1,5-a]pyridin-8-yl]-3,6-dihydro-2H-pyridine-1-carboxylate]"
24,6.36,"CCOC(=O)N1CC=C(c2cccn3nc(Nc4ccc(C(=O)NCC5CC56CCNCC6)cc4)nc23)CC1 (stereo not drawn) [Example 2-306, ethyl 4-[2-[4-(6-azaspiro[2.5]octan-2-ylmethylcarbamoyl)anilino]-[1,2,4]triazolo[1,5-a]pyridin-8-yl]-3,6-dihydro-2H-pyridine-1-carboxylate]"
25,7.12,"CCOC(=O)N1CC=C(c2cccn3nc(Nc4ccc(C(=O)N5CCC6CNCC65)cc4)nc23)CC1 (stereo not drawn) [Example 2-308, ethyl 4-[2-[4-(3,3a,4,5,6,6a-hexahydro-2H-pyrrolo[2,3-c]pyrrole-1-carbonyl)anilino]-[1,2,4]triazolo[1,5-a]pyridin-8-yl]-3,6-dihydro-2H-pyridine-1-carboxylate]"
26,6.74,"O=C(CCC(F)(F)F)N1CC=C(c2cccn3nc(Nc4ccc(C(=O)N5CC6CNCC6C5)cc4)nc23)CC1 (stereo not drawn) [Example 2-313, 1-[4-[2-[4-(2,3,3a,4,6,6a-hexahydro-1H-pyrrolo[3,4-c]pyrrole-5-carbonyl)anilino]-[1,2,4]triazolo[1,5-a]pyridin-8-yl]-3,6-dihydro-2H-pyridin-1-yl]-4,4,4-trifluoro-butan-1-one]"
27,6.71,"O=C(CCC(F)(F)F)N1CC=C(c2cccn3nc(Nc4ccc(C(=O)N5CCC6(CC5)CNC6)cc4)nc23)CC1 [Example 2-314, 1-[4-[2-[4-(2,7-diazaspiro[3.5]nonane-7-carbonyl)anilino]-[1,2,4]triazolo[1,5-a]pyridin-8-yl]-3,6-dihydro-2H-pyridin-1-yl]-4,4,4-trifluoro-butan-1-one]"

# Reference: patent US9873709B2 (priority 2013, dated 2018)
